Legend:
Cathepsin F (Cat F) = target: T1, Cathepsin F (Cat F) (Mus musculus, UniProt Q9R013); type: cell-based
T1 sequence (Q9R013 249-462): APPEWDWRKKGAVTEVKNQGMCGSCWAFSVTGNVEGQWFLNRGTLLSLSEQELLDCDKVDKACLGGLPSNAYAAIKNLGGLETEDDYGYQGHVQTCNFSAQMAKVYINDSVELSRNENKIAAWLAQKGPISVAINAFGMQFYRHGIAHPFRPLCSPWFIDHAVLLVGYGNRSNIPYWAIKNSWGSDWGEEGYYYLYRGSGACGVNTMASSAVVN

Cathepsin Z (Cat Z) = Cathepsin Z (Cat Z) (Mus musculus, UniProt Q9WUU7); assay: competition of […]-JPM565 active-site labeling in transfected […] cell lysate; type: biochemical
Cathepsin Z (Cat Z), sequence (Q9WUU7 64-306): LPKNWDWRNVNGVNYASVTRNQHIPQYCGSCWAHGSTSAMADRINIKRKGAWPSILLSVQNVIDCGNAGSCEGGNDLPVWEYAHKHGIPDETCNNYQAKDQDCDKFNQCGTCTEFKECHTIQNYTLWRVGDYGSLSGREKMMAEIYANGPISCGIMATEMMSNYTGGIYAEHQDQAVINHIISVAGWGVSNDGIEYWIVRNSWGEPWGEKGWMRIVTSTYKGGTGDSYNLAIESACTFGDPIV

complete inhibition (Cathepsin F (Cat F))	inhibits at this concentration (Cathepsin Z (Cat Z))	Structure (SMILES)
1 (complete inhibition) μM	–	CC(C)C[C@H](NC(=O)N1CCOCC1)C(=O)N[C@H](/C=C/S(=O)(=O)c1ccccc1)CCc1ccccc1 [LHVS]
–	20 (inhibits at this concentration) μM	CC(C)C[C@H](NC(=O)[C@H]1O[C@@H]1C(=O)O)C(=O)NCCCCNC(=N)N [E64]
